Reference: publication PMC12005787, “Synthetic Lethality of SHP2 and XIAP Suppresses Proliferation and Metastasis in KRAS‐mutant Nonsmall Cell Lung Cancer” (Advanced Science, 2025)
Like-named read-outs stand apart in the source and are kept apart here.

Tests used:
ACHN cells = assay: Cell viability assay (CCK-8); format: cell-based; conditions: Homo sapiens
Procedure: (§1) supplies are listed in Supplementary Table S5. […]
(§2) KRAS-mutant and wild-type cells are listed in Supplementary Table S7.
(§3) For the adherent cell viability assay, cells in the logarithmic growth phase were seeded in 96-well culture plates at a density of 5×103 well-1 and incubated overnight. Diluted compounds or DMSO were added, or specific treatments were incubated at 37 °C and 5% CO2 for 24 h or 48 h. Cell viability was determined using CCK-8 or CellLightTM Cell Viability Assay Kit, according to the manufacturer's protocol. The luminescence signals of the treated samples were normalized to those of the DMSO group. […]

MDA-MB-231 cells = assay: Cell viability assay (CCK-8); format: cell-based; conditions: Homo sapiens
Procedure: as §1, §2, §3

NCI-H1299 cells = assay: Cell viability assay (CCK-8); format: cell-based; conditions: Homo sapiens
Procedure: as §1, §2, §3

NCI-H1155 cells = assay: Cell viability assay (CCK-8); format: cell-based; conditions: Homo sapiens
Procedure: as §1, §2, §3

HeLa cells = assay: Cell viability assay (CCK-8); format: cell-based; conditions: Homo sapiens
Procedure: as §1, §2, §3

SW1417 cells = assay: Cell viability assay (CCK-8); format: cell-based; conditions: Homo sapiens
Procedure: as §1, §2, §3

NCI-H1975 cells = assay: Cell viability assay (CCK-8); format: cell-based; conditions: Homo sapiens, NCI-H1975, 24 h, NCI-H1975, RAS-wild type, EGFR L858R/T790M
Procedure: as §1, §2, §3

A549 cells = assay: Cell viability assay (CCK-8); format: cell-based; conditions: Homo sapiens
Procedure: as §1, §2, §3

HCT15 cells = assay: Cell viability assay (CCK-8); format: cell-based; conditions: Homo sapiens, HCT-15
Procedure: as §1, §2, §3

HCC44 cells = assay: Cell viability assay (CCK-8); format: cell-based; conditions: Homo sapiens
Procedure: as §1, §2, §3

NCI-H2122 cells = assay: Cell viability assay (CCK-8); format: cell-based; conditions: Homo sapiens
Procedure: as §1, §2, §3

Lewis/Luc1 cells = assay: Cell viability assay (CCK-8); format: cell-based
Procedure: as §1, §2, §3

[1] = tested on: NCI-H2122, A549, and NCI-H1944 cells; assay: Cell senescence β-galactosidase staining; format: cell-based, human; conditions: A549, NCI‐H2122, and NCI‐H1944 cells
Procedure: Cell senescence β-galactosidase staining
NCI-H2122, A549, and NCI-H1944 cells in the logarithmic growth phase were seeded into 48-well plates and cultured overnight. The supernatant was aspirated and fresh serum-free (0%), low-serum (3%), or regular serum (10%) medium with different drugs was added for 48 h. When the supernatant was discarded, β-galactosidase staining fixation fluid were added for 15 min and β-galactosidase staining solution were imported overnight at 37 ℃.
Finally, the staining results were recorded using an inverted microscope.

NCI-H1755 cells = assay: Cell viability assay (CCK-8); format: cell-based; conditions: Homo sapiens
Procedure: as §2, §3

SNU-C2A cells = assay: Cell viability assay (CCK-8); format: cell-based
Procedure: as §2, §3

NCI-H1693 cells = assay: Cell viability assay (CCK-8); format: cell-based; conditions: Homo sapiens
Procedure: as §2, §3

SW1116 cells = assay: Cell viability assay (CCK-8); format: cell-based; conditions: Homo sapiens, SW 1116
Procedure: as §2, §3

HCT116 cells = assay: Cell viability assay (CCK-8); format: cell-based; conditions: Homo sapiens, HCT-116
Procedure: as §2, §3

His‐SHP2 (full‐length) = molecular target: T1, His‐SHP2 (full‐length) (Homo sapiens, UniProt Q06124); assay: Full-length SHP2 activity activated by bis-phosphorylated Gab1 peptide; format: biochemical
T1 construct: His; made in house; host or cells: E. coli
Procedure: For detection of SHP2 allosteric regulation by the compounds, the soluble fusion His‐SHP2 protein was cloned, expressed, and purified by constructing a pET28a‐PTPN11 recombinant plasmid in E. coli. Subsequently, 148 nM His‐SHP2 protein with 14.8 µM peptide (bis‐phosphorylated peptide from Gab1, with the sequence of: H2N‐VE(pY)LDLDLD(PEG8)RVD‐(pY)VVVDQQ‐amide) was mixed thoroughly in reaction buffer and incubated for 30 min at 37 °C in the dark. The fluorescence intensity was detected by DiFMUP after addition of different drugs and incubation at 37 °C for 30 min, with SHP099 and Na3VO4 as positive controls and unactivated protein as negative controls.

[2] = tested on: MIG‐6 and SPRY2 in NCI‐H2122 cells; assay: MIG-6 and SPRY2 protein expression (western blotting); format: cell-based, human; conditions: 24 h
Procedure: Transwell, and the subsequent experiments were performed as described in Cell migration […]
After given treatment, cells were lysed by ice bath with radio-immunoprecipitation assay (RIPA) buffer containing 1% phenylmethylsulphonyl fluoride (PMSF), and the supernatant was collected by centrifugation, and the protein concentration was subsequently determined using a BCA Protein Assay Kit. Depending on the molecular weight of the proteins, different concentrations of sodium dodecyl-sulfate polyacrylamide gel electrophoresis (SDS-PAGE) separator gels were prepared for protein electrophoresis. Equal amounts of proteins were sampled and subjected to SDS-PAGE gel electrophoresis; at the end of electrophoresis, the proteins were transferred to nitrocellulose (NC) membranes. The NC membrane was blocked with 5% skim milk and covered with a specific primary antibody overnight at 4 °C, in which the primary antibody was diluted at a ratio of 1:500–1:5000. The NC membrane was […]

IC50 (ACHN cells; 48 h, read-out: IC50 at 48 h): 10.3 ± 0.7 µM
IC50 (ACHN cells; HRAS, 24 h, read-out: IC50 at 24 h): 27.4 ± 0.3 µM
IC50 (MDA-MB-231 cells; MDA-MB-231, 48 h, read-out: IC50 at 48 h): 11.5 ± 0.7 µM
IC50 (MDA-MB-231 cells; MDA-MB-231, KRAS G13D, 24 h, read-out: IC50 at 24 h): 13.6 ± 0.2 µM
IC50 (NCI-H1299 cells; NCI-H1299, 48 h, read-out: IC50 at 48 h): 13.1 ± 0.6 µM
IC50 (NCI-H1299 cells; NCI-H1299, NRAS, 24 h, read-out: IC50 at 24 h): 19.6 ± 1 µM
IC50 (NCI-H1155 cells; NCI-H1155, 48 h, read-out: IC50 at 48 h): 7.07 ± 0.45 µM
IC50 (NCI-H1155 cells; NCI-H1155, KRAS Q61H, 24 h, read-out: IC50 at 24 h): 16.1 ± 0.36 µM
IC50 (HeLa cells; 48 h, read-out: IC50 at 48 h): 13.4 ± 0.6 µM
IC50 (HeLa cells; RAS-wild type, 24 h, read-out: IC50 at 24 h): 16.5 ± 0.2 µM
IC50 (SW1417 cells; SW1417, 48 h, read-out: IC50 at 48 h): 14.9 ± 0.34 µM
IC50 (SW1417 cells; SW1417, RAS-wild type, 24 h, read-out: IC50 at 24 h): 65.39 ± 0.36 µM
IC50 (NCI-H1975 cells): 7.4 ± 0.83 µM
IC50 (A549 cells; A549, 48 h, read-out: IC50 at 48 h): 6.5 ± 0.9 µM
IC50 (A549 cells; A549, KRAS G12S, 24 h, read-out: IC50 at 24 h): 7.9 µM
IC50 (HCT15 cells; HCT15, 48 h, read-out: IC50 at 48 h): 9.95 ± 0.38 µM
IC50 (HCT15 cells; HCT15, KRAS G13D, 24 h, read-out: IC50 at 24 h): 12.8 ± 0.43 µM
IC50 (HCC44 cells; HCC44, 48 h, read-out: IC50 at 48 h): 6.52 ± 0.4 µM
IC50 (HCC44 cells; HCC44, KRAS G12C, 24 h, read-out: IC50 at 24 h): 27.3 ± 0.44 µM
IC50 (NCI-H2122 cells; NCI-H2122, 48 h, read-out: IC50 at 48 h): 4.03 ± 0.1 µM
IC50 (NCI-H2122 cells; NCI-H2122, KRAS G12C, 24 h, read-out: IC50 at 24 h): 4.9 ± 0.1 µM
IC50 (NCI-H1755 cells; NCI-H1755, 48 h, read-out: IC50 at 48 h): 14.2 ± 0.27 µM
IC50 (NCI-H1755 cells; NCI-H1755, RAS-wild type, 24 h, read-out: IC50 at 24 h): 49.4 ± 0.32 µM
IC50 (SNU-C2A cells; 48 h, read-out: IC50 at 48 h): 8.73 ± 0.43 µM
IC50 (SNU-C2A cells; KRAS G12D, 24 h, read-out: IC50 at 24 h): 22.4 ± 0.5 µM
IC50 (NCI-H1693 cells; NCI-H1693, 48 h, read-out: IC50 at 48 h): 16.2 ± 0.37 µM
IC50 (NCI-H1693 cells; NCI-H1693, RAS-wild type, 24 h, read-out: IC50 at 24 h): 42.57 ± 0.34 µM
IC50 (SW1116 cells; SW1116, 48 h, read-out: IC50 at 48 h): 7 ± 0.35 µM
IC50 (SW1116 cells; SW1116, KRAS G12A, 24 h, read-out: IC50 at 24 h): 19.5 ± 0.29 µM
IC50 (HCT116 cells; HCT116, 48 h, read-out: IC50 at 48 h): 9.6 ± 0.4 µM
IC50 (HCT116 cells; HCT116, KRAS G13D, 24 h, read-out: IC50 at 24 h): 18.2 ± 0.9 µM
effect on SHP2 full‐length activity allosterically activated by bis‐phosphorylated Gab1 peptide (His‐SHP2 (full‐length)): no effect
Compound: CCCCCCCCCCCC1=C(O)C(=O)C=C(O)C1=O [Embelin]
IC50 (Lewis/Luc1 cells; Lewis/Luc1, 48 h, read-out: IC50 at 48 h): 18.2 ± 0.9 µM
IC50 (Lewis/Luc1 cells; Lewis/Luc1, RAS-wild type, 24 h, read-out: IC50 at 24 h): 20.6 ± 0.6 µM
induction of cell senescence [1]: induced senescence
expression of MIG‐6 and SPRY2 [2]: significantly promoted the expression
